Test system: Jurkat cells
Assay: Chromatin cleavage assay in Jurkat cells
Format: cell-based, human
Conditions: for Chromatin fragments (%): 1 mM, 2 hours + 7 hours; for content of chromatin fragments: 3 hours, 0.25 μM staurosporine or 350 mM mannitol (from 2.6±1.2)
Protocol: FIG. 4. Effect of ouabain on chromatin cleavage in Jurkat cells. (A) Kinetics of accumulation of chromatin fragments in control (curves 1, 3) and ouabain-treated (curves 2, 4) cells in the absence (curves 1, 2) or presence (curves 3, 4) of 100 ng/ml of anti-human Fas (mouse monoclonal IgM, Upstate Biotechnology, Lake Placid, N.Y.); (B) Content of chromatin fragments in Jurkat cells subjected to 3 hours of incubation with or without 1 mM ouabain, 0.25 μM staurosporine and 350 mM mannitol. In both experiments, ouabain was added 2 hours before triggering of apoptosis. Mean values±S.E. obtained in experiments performed in triplicate are given.
To estimate chromatin cleavage, cells were incubated for 2 hours in the presence of 10% calf serum in the control solution (DMEM, [Na^+]=137 mM; [K^+]=5 mM—line 1) or under equimolar substitution of NaCl with KCl ([Na^+]=14 mM; [K^+]=128 mM—line 2) with or without 1 mM ouabain and then for an additional 7 hours at the same media with or without 100 ng/ml Fas ligand (Fas-L). Intracellular Na^+ and K^+ content was measured as steady-state distribution of isotopes after 24 hours preincubation of cells in control Na^+-enriched solution containing 0.5 μCi/ml ^86Rb or 2 μCi/ml ^22Na, and an additional 6 hours incubation in Na^+—(line 1) or K^+—(line 2) enriched medium containing 10% calf serum, isotopes with the same specific activity with or without 1 mM ouabain. For more details see Experimental Procedures. Mean values±S.E. obtained in experiments performed in triplicate are given. ★, #p<0.01 and 0.001 compared to ouabain-untreated cells.
Cells. VSMC were obtained by explant methods from aortas of 10- to 13-week-old male rats as described previously (17), cultured in DMEM with 10% calf serum, 100 U/ml penicillin, 100 µg/ml streptomycin and used between 10 to 16 passages. Cells transfected with c-myc (VSMC-MYC) and E1A-adenovirus (VSMC-E1A) were obtained in accordance with a previously-described protocol (18,19) and were cultured in the same medium with the addition of 500 µg/ml genticin. Jurkat cells were obtained from the American Type Culture Collection and cultured in RPMI 1640 medium supplied with 10% calf serum, antibiotics, sodium pyruvate, glutamate and β-mercaptoethanol.
Chromatin cleavage assay. Chromatin cleavage in VSMC was estimated by a technique described previously in detail (10). Briefly, VSMC grown in 24-well dishes were labeled for 24 hours in serum-supplied DMEM with [^3H]-thymidine (1 μCi/ml), washed with 2×2 ml of DMEM and incubated in serum-supplied DMEM. In 48 hr, the cells were pretreated with ouabain or K^+-depleted medium as indicated in FIG. 2 and Table 3, washed twice with serum-containing medium and incubated with 0.5 ml of medium with or without ouabain and containing different inducers of apoptosis. To measure the content of chromatin fragments, the cells were transferred on ice and 1 ml of ice-cold lysed buffer (10 mM EDTA, 10 mM tris-HCl, 0.5% triton X100 (pH 8.0)) was added. After 15 min, the cell lysate was transferred to Ependorf tubes, sedimented (12,000 rpm, 10 mm), and 1 ml of supernatant was transferred for the measurement of radioactivity (A1t). The remaining radioactivity from pellets and wells was extracted with 0.5 ml of 1% SDS/4 mM EDTA mixture, combined and counted (A2). Chromatin cleavage was quantified as the content of chromatin fragments normalized by total content of [^3H]-labeled DNA in accordance with the equation [1.5×(A1t−A1o)/(A2+A1t−1.5A1o)]×100% where A1o is the value of A1t before induction of apoptosis. To measure chromatin fragmentation in [^3H]-thymidine-labeled Jurkat cells, they were resuspended at a density of 10^6 cells/ml in medium containing 10% calf serum and the additions indicated in FIG. 4 and Table 4. At the time intervals shown in FIG. 4, 100 μl of cell suspension was mixed with 100 μl of PBS contairung 0.5% triton X100, and the content of chromatin fragments was measured as described previously in detail (20).

Structure (SMILES) | chromatin cleavage in the absence of triggers of apoptosis (Jurkat cells, 2 hours ouabain pretreatment, subsequent 3 hours) | increment of chromatin cleavage triggered by Fas ligand, staurosporine or mannitol (Jurkat cells, ouabain, 3 hours treatment with trigger) | Chromatin fragments (%) (ouabain-treated Jurkat cells, +Fas-L 100 ng/ml, medium [Na+]o=14, [K+]o=128 mM) | Chromatin fragments (%) (ouabain-treated Jurkat cells, +Fas-L 100 ng/ml, medium [Na+]o=137, [K+]o=5 mM) | Chromatin fragments (%) (ouabain-treated Jurkat cells, no Fas-L, medium [Na+]o=14, [K+]o=128 mM) | Chromatin fragments (%) (ouabain-treated Jurkat cells, no Fas-L, medium [Na+]o=14, [K+]o=128 mM, listed as ouabain) | Chromatin fragments (%) (ouabain-treated Jurkat cells, no Fas-L, medium [Na+]o=137, [K+]o=5 mM) | Chromatin fragments (%) (ouabain-treated Jurkat cells, no Fas-L, medium [Na+]o=137, [K+]o=5 mM, listed as ouabain) | increment of the content of chromatin fragments triggered by Fas ligand (ouabain-treated Jurkat cells, 7-hr incubation) | content of chromatin fragments (Jurkat cells)
C[C@@H]1O[C@@H](O[C@H]2C[C@@H](O)[C@]3(CO)[C@H]4[C@H](O)C[C@]5(C)[C@@H](C6=CC(=O)OC6)CC[C@]5(O)[C@@H]4CC[C@]3(O)C2)[C@H](O)[C@H](O)[C@H]1O [Ouabain, 1β,3β,5,11α,14,19-hexahydroxycard 20 [22]-enolide 3-[6-deoxy-α-L-mannopyrano-sidel]] | did not significantly modify chromatin cleavage | did not observe any effect | 22.7% | 42.7% | 5.7% | 5.7±2.0% | 16.0% | 16.0±4.6% | 26.2±4.7% | –
OC[C@@H](O)[C@@H](O)[C@H](O)[C@H](O)CO [mannitol] | – | – | – | – | – | – | – | – | – | 15.6±2.9%
CN[C@@H]1C[C@H]2O[C@@](C)([C@@H]1OC)n1c3ccccc3c3c4c(c5c6ccccc6n2c5c31)C(=O)NC4 [staurosporine] | – | – | – | – | – | – | – | – | – | 19.7±4.3%
